From US12268683B2, “Compounds and methods for synergistic activation of M channels” (THE REGENTS OF THE UNIVERSITY OF CALIFORNIA, priority 2018, dated 2025)
Entries after “also recorded” stand apart in the source; their conditions may differ.

Assays:
[1] = biological target: T1, KCNQ2/3 (Homo sapiens, UniProt O43525+O43526); assay: TEVC of heteromeric KCNQ2/3 channels expressed in Xenopus laevis oocytes; assay type: cell-based; conditions: for effect on voltage dependence of KCNQ2/3 activation, screen of M. oppositifolius leaf compounds: 100 μM, MTX and palmitic acid 30 μM
Text: (§1) cRNA transcripts encoding human KCNA1, KCNQ1, KCNQ2, KCNQ3, KCNQ4, or KCNQ5 were generated by in vitro transcription using the T7 polymerase message machine kit (Thermo Fisher Scientific), after vector linearization, from cDNA sub-cloned into plasmids incorporating X. laevis β-globin 5′ and 3′ UTRs flanking the coding region to enhance translation and cRNA stability. cRNA was quantified by spectrophotometry. Mutant cDNAs were generated by site-directed mutagenesis using a QuikChange kit according to manufacturer's protocol (Stratagene, San Diego, Calif.) and corresponding cRNAs prepared as above. Defolliculated stage V and VI X. laevis oocytes (Ecocyte Bioscience, Austin, Tex.) were injected with Kv channel a subunit cRNAs (10 ng total per oocyte). Oocytes were incubated at 16° C. in Barth's saline solution (Ecocyte) containing penicillin and streptomycin, with daily washing, for 3-5 days prior to two-electrode voltage-clamp (TEVC) recording.
TEVC recording was performed at room temperature with an OC-725C amplifier (Warner Instruments, Hamden, Conn.) and pClamp10.2 software (Molecular Devices, Sunnyvale, Calif.) 3-5 days after cRNA injection as described in the section above. Oocytes were placed in a small-volume oocyte bath (Warner) and viewed with a dissection microscope. Chemicals were sourced from Sigma. Bath solution was (in mM): 96 NaCl, 4 KCl, 1 MgCl2, 1 CaCl2. 10 HEPES (pH 7.6). […] MTX (DMSO), sorbic acid (ethanol), and glutaconic acid (molecular grade H2O) were stored at −20° C. as 1 M stocks. Oleamide was stored as a 1 mM stock in ethanol at 4° C. Palmitic acid was conjugated with bovine serum albumin as a 1 mM stock and stored at −20° C. All compounds were diluted to working concentrations each experimental day. All compounds were introduced to the recording bath via gravity perfusion at a constant flow of 1 ml/min for 3 min prior to recording. Pipettes were of 1-2 MΩ resistance when filled with 3 M KCl. Currents were recorded in response to pulses between −80 and +40 mV at 20 mV intervals, or a single pulse to +40 mV, from a holding potential of −80 mV, to yield current-voltage relationships, current magnitude, and for quantifying activation rate. TEVC data analysis was performed with Clampfit10.2 (Molecular Devices) and Graphpad Prism software (GraphPad, San Diego, Calif., USA); values are stated as mean±SEM. Normalized tail currents were plotted versus prepulse voltage and fitted with a single Boltzmann function: […]
(§2) cRNA transcripts encoding human KCNQ2, KCNQ3, KCNQ4, KCNQ5 (Kv7.2-Kv7.5) were generated by in vitro transcription using the T7 polymerase mMessage mMachine kit (Thermo Fisher Scientific), after vector linearization, from cDNA sub-cloned into plasmids incorporating Xenopus laevis β-globin 5′ and 3′ UTRs flanking the coding region to enhance translation and cRNA stability. cRNA was quantified by spectrophotometry. Mutant KCNQ2 and KCNQ3 cDNAs were generated with site-directed mutagenesis using a QuikChange kit according to the manufacturer's protocol (Stratagene, San Diego, Calif.) and corresponding cRNAs prepared as above.

[2] = biological target: KCNQ2-W236L/KCNQ3-W265L (Homo sapiens, UniProt O43525+O43526, W236L/W265L); assay: TEVC of double-mutant WL/WL KCNQ2/3 channels; assay type: cell-based
Text: as §1
TEVC recording was performed at room temperature with an OC-725C amplifier (Warner Instruments, Hamden, Conn.) and pClamp10.2 software (Molecular Devices, Sunnyvale, Calif.) 3-5 days after cRNA injection as described in the section above. Oocytes were placed in a small-volume oocyte bath (Warner) and viewed with a dissection microscope. Chemicals were sourced from Sigma. Bath solution was (in mM): 96 NaCl, 4 KCl, 1 MgCl2, 1 CaCl2. 10 HEPES (pH 7.6). […] Currents were recorded in response to pulses between −80 and +40 mV at 20 mV intervals, or a single pulse to +40 mV, from a holding potential of −80 mV, to yield current-voltage relationships, current magnitude, and for quantifying activation rate. […]
as §2, with “Mutant KCNQ2 and KCNQ3 cDNAs were generated with site-directed mutagenesis using a QuikChange kit according to the manufacturer's protocol (Stratagene, San Diego, Calif.) and corresponding cRNAs prepared as above.” left out

[3] = biological target: KCNQ2 (Homo sapiens, UniProt O43526); assay: TEVC of homomeric KCNQ2 expressed in Xenopus oocytes; assay type: cell-based; conditions: Example 4; read-out: EC50, ΔV0.5act of KCNQ2
Text: as §1
(§3) TEVC recording was performed at room temperature with an OC-725C amplifier (Warner Instruments, Hamden, Conn.) and pClamp10.2 software (Molecular Devices, Sunnyvale, Calif.) 3-5 days after cRNA injection as described in the section above. Oocytes were placed in a small-volume oocyte bath (Warner) and viewed with a dissection microscope. Chemicals were sourced from Sigma. Bath solution was (in mM): 96 NaCl, 4 KCl, 1 MgCl2, 1 CaCl2. 10 HEPES (pH 7.6). […] MTX (DMSO), sorbic acid (ethanol), and glutaconic acid (molecular grade H2O) were stored at −20° C. as 1 M stocks. Oleamide was stored as a 1 mM stock in ethanol at 4° C. Palmitic acid was conjugated with bovine serum albumin as a 1 mM stock and stored at −20° C. All compounds were diluted to working concentrations each experimental day. All compounds were introduced to the recording bath via gravity perfusion at a constant flow of 1 ml/min for 3 min prior to recording. Pipettes were of 1-2 MΩ resistance when filled with 3 M KCl. Currents were recorded in response to pulses between −80 and +40 mV at 20 mV intervals, or a single pulse to +40 mV, from a holding potential of −80 mV, to yield current-voltage relationships, current magnitude, and for quantifying activation rate. TEVC data analysis was performed with Clampfit10.2 (Molecular Devices) and Graphpad Prism software (GraphPad, San Diego, Calif., USA); values are stated as mean±SEM. Normalized tail currents were plotted versus prepulse voltage and fitted with a single Boltzmann function:
(§4) cRNA transcripts encoding human KCNQ2, KCNQ3, KCNQ4, KCNQ5 (Kv7.2-Kv7.5) were generated by in vitro transcription using the T7 polymerase mMessage mMachine kit (Thermo Fisher Scientific), after vector linearization, from cDNA sub-cloned into plasmids incorporating Xenopus laevis β-globin 5′ and 3′ UTRs flanking the coding region to enhance translation and cRNA stability. cRNA was quantified by spectrophotometry. Mutant KCNQ2 and KCNQ3 cDNAs were generated with site-directed mutagenesis using a QuikChange kit according to the manufacturer's protocol (Stratagene, San Diego, Calif.) and corresponding cRNAs prepared as above. Defolliculated stage V and VI Xenopus laevis oocytes (Ecocyte Bioscience, Austin, Tex.) were injected with KCNQ channel α subunit cRNAs (5-10 ng). The oocytes were incubated at 16° C. in Barth's saline solution (Ecocyte) containing penicillin and streptomycin, with daily washing, for 2-5 days prior to two-electrode voltage-clamp (TEVC) recording.
(§5) TEVC recording was performed at room temperature using a OC-725C amplifier (Warner Instruments, Hamden, Conn.) and pClamp8 software (Molecular Devices, Sunnyvale, Calif.) 2-5 days after cRNA injection as described in the section above. The oocytes were placed in a small-volume oocyte bath (Warner) and viewed with a dissection microscope. Unless otherwise stated, chemicals were sourced from Sigma. Bath solution was (in mM): 96 NaCl, 4 KCl, 1 MgCl2, 1 CaCl2, 10 HEPES (pH 7.6).

[4] = biological target: KCNQ3* (KCNQ3-A315T) (Homo sapiens, UniProt O43525, A315T); assay: TEVC of homomeric KCNQ3* expressed in Xenopus oocytes; assay type: cell-based
Text: as §1, §3, §4, §5

[5] = biological target: KCNQ4 (Homo sapiens, UniProt P56696); assay: TEVC of homomeric KCNQ4 expressed in Xenopus oocytes; assay type: cell-based
Text: as §1, §3, §4, §5

[6] = biological target: KCNQ5 (Homo sapiens, UniProt Q9NR82); assay: TEVC of homomeric KCNQ5 expressed in Xenopus oocytes; assay type: cell-based
Text: as §1, §3, §4, §5

[7] = biological target: KCNQ1 (Homo sapiens, UniProt P51787); assay: TEVC of homomeric KCNQ1 expressed in Xenopus oocytes; assay type: cell-based; conditions: Example 4; read-out: EC50, ΔV0.5act of KCNQ1
Description: Oocytes were placed in a small-volume oocyte bath (Warner) and viewed with a dissection microscope. Chemicals were sourced from Sigma. Bath solution was (in mM): 96 NaCl, 4 KCl, 1 MgCl2, 1 CaCl2. 10 HEPES (pH 7.6). […] MTX (DMSO), sorbic acid (ethanol), and glutaconic acid (molecular grade H2O) were stored at −20° C. as 1 M stocks. Oleamide was stored as a 1 mM stock in ethanol at 4° C. Palmitic acid was conjugated with bovine serum albumin as a 1 mM stock and stored at −20° C. All compounds were diluted to working concentrations each experimental day. All compounds were introduced to the recording bath via gravity perfusion at a constant flow of 1 ml/min for 3 min prior to recording. Pipettes were of 1-2 MΩ resistance when filled with 3 M KCl. Currents were recorded in response to pulses between −80 and +40 mV at 20 mV intervals, or a single pulse to +40 mV, from a holding potential of −80 mV, to yield current-voltage relationships, current magnitude, and for quantifying activation rate. […]

[8] = biological target: T1, KCNQ2/3; conditions: cited from earlier work
[9] = tested on: pentylene tetrazole-induced seizures; assay: PTZ chemoconvulsant assay; assay type: in vivo, mouse
Text: We compared anticonvulsant activities of test compounds in male C57BL/6 mice (Charles River) aged 2-3 months. Mice were housed and used according to the recommendations in the Guide for the Care and Use of Laboratory Animals of the National Institutes of Health (NIH Publication, 8th edition, 2011). The study protocol was approved by the Institutional Animal Care and Use Committee of University of California, Irvine, which confirmed that all relevant ethical regulations were adhered to. Chemicals were sourced from Sigma (St. Louis, Mo., USA). A pentylene tetrazole (PTZ) chemoconvulsant assay was used-. […] Following the PTZ injection, mice were caged individually and an observer (GWA) blinded to the drug used recorded, over 20 min, clonic and tonic seizure incidence, and seizure-related mortality.
We quantified the anticonvulsant activities of (E)-2-dodecenal and tridecanal in male C57BL/6 mice (Charles River, Wilmington, Mass.) aged 2-3 months. The mice were housed and used according to the recommendations in the Guide for the Care and Use of Laboratory Animals of the National Institutes of Health (NIH Publication, 8th edition, 2011). The study protocol was approved by the Institutional Animal Care and Use Committee of University of California, Irvine. The chemicals were sourced from Sigma (St. Louis, Mo., USA). We used a pentylene tetrazole (PTZ) chemoconvulsant assay as we previously described (30). We injected the mice intraperitoneally with (E)-2-dodecenal (2 or 20 mgkg^−1) (with or without 2.5 mgkg^−1 XE991) or tridecanal (20 mgkg^−1) solubilized in PBS, or vehicle control (PBS), and then 30 minutes later we injected mice intraperitoneally with 80 mgkg-PTZ. Following the PTZ injection, the mice were caged individually and an observer (GWA) blinded to the experimental condition timed the latency to first seizure.
We compared anticonvulsant activities of 3FMSG in male C57BL/6 mice (Charles River) aged 2-3 months. Mice were housed and used according to the recommendations in the Guide for the Care and Use of Laboratory Animals of the National Institutes of Health (NIH Publication, 8th edition, 2011). The study protocol was approved by the Institutional Animal Care and Use Committee of University of California, Irvine, which confirmed that all relevant ethical regulations were adhered to. Chemicals were sourced from Sigma (St. Louis, Mo., USA). We used a pentylene tetrazole (PTZ) chemoconvulsant assay as we previously described^27. Mice were injected intraperitoneally with 3FMSG (5 mg kg^−1) or vehicle control (PBS) and then 30 minutes later injected intraperitoneally with 80 mg kg^−1 PTZ. Following the PTZ injection, mice were caged individually and an observer (GWA) blinded to the drug used recorded seizure activity over 20 minutes.

Oc1ccccc1S [2-mercaptophenol]
concentration from which KCNQ2/3 is inhibited [1]: ~100 µM
effect of co-applied compound (100 μM) on KCNQ2/3 activation by MTX (30 μM) or IVA (500 μM) [1]: did not alter
effect on KCNQ2/3 activity (in words) [1]: inhibits; also recorded: inhibitory at higher doses
effect on voltage dependence of KCNQ2/3 activation, screen of M. oppositifolius leaf compounds [1]: positive-shifted
effect on WL/WL KCNQ2/3 (in words) [2]: insensitive

NC(C(=O)O)c1ccc(F)cc1 (stereo not drawn) [4FPG, 4-(fluorophenyl)glycine]
EC50 ([1]; Example 4, read-out: EC50, shift in voltage dependence of KCNQ2/3 activation (ΔV0.5act)): 61 ± 42 nM
EC50 [3]: 69 ± 31 nM
effect on KCNQ3* (in words) [4]: no effects
EC50 ([5]; Example 4, read-out: EC50, ΔV0.5act of KCNQ4): 49 ± 12 nM
effect on KCNQ5 (in words) [6]: no effects
EC50 [7]: 90 ± 20 nM

NCCCC(=O)O [GABA, γ-aminobutyric acid, reference compound]
effect on KCNQ4 (in words) [5]: unable to open

NCC(O)CC(=O)O (stereo not drawn) [GABOB, γ-Amino-β-hydroxybutyric acid]
effect of co-applied compound (100 μM) on KCNQ2/3 activation by MTX (30 μM) or IVA (500 μM) [1]: only partially diminishes; also recorded: highly effective at competing out

O=C(Nc1ccc(Cl)nc1)c1ccc(F)c(F)c1 [ICA-27243]
potency at opening KCNQ2/3 versus KCNQ4 [8]: > 20 fold

O=C(Nc1cnc(Cl)nc1)c1ccc(F)c(F)c1 [ICA-069673]
selectivity KCNQ2/3 versus KCNQ3/5 activation [8]: 20 fold

O=C1c2ccccc2C(Cc2ccncc2)(Cc2ccncc2)c2ccccc21 [XE991]
inhibition of activator-augmented KCNQ2/3 current ([1]; after wash-in of MTX or gabapentin): rapidly inhibited; also recorded: completely inhibited
latency to first PTZ-induced seizure ([9]; XE991 2.5 mgkg−1 with (E)-2-dodecenal 20 mgkg−1): eliminated the protective effect

O=C(O)C=CCC(=O)O [glutaconic acid]
effect on voltage dependence of KCNQ2/3 activation, screen of M. oppositifolius leaf compounds [1]: negative-shifted

CCCCCCCC/C=C\CCCCCCCC(N)=O [oleamide]
effect on KCNQ2/3 activity (in words) [1]: slightly increased KCNQ2/3 currents at higher voltages

CCCCCCCCCCCCCCCC(=O)O [palmitic acid]
effect on voltage dependence of KCNQ2/3 activation, screen of M. oppositifolius leaf compounds [1]: negative-shifted

CC(C)C[C@H](CN)CC(=O)O [pregabalin]
concentration from which KCNQ2/3 is inhibited [1]: ≥ 10 µM
effect on KCNQ2/3 activity (in words) [1]: does not activate; also recorded: no augmenting effect
effect on KCNQ2/3 gating kinetics [1]: no effects
shift of membrane potential (EM) of KCNQ2/3-expressing oocytes ([1]; unclamped oocytes): failed to shift

CCCCCCCCCCCCC=O [tridecanal, reference compound]
effect on KCNQ2/3 activity (in words) [1]: KCNQ2/3-inactive
latency to first PTZ-induced seizure ([9]; 20 mgkg−1 i.p.): no effect

CCCCC(=O)O [valeric acid]
KCNQ2/3 activation (previously found) [8]: inactive
